From PubChem BioAssay (NCI)
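At the GI50, growth is halved. TGI is the concentration that stops growth completely.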

Tests used:
Assay in all cases: inhibition of tumour cell growth, NCI panel, 384-well format
UO-31 renal = tested on: UO-31 renal
NCI/ADR-RES ovarian = tested on: NCI/ADR-RES ovarian
CCRF-CEM leukemia = tested on: CCRF-CEM leukemia
OVCAR-8 ovarian = tested on: OVCAR-8 ovarian
HCT-15 colon = tested on: HCT-15 colon
SK-OV-3 ovarian = tested on: SK-OV-3 ovarian
MCF7 breast = tested on: MCF7 breast
U251 glioblastoma = tested on: U251 glioblastoma
NCI-H522 lung = tested on: NCI-H522 lung
K-562 leukemia = tested on: K-562 leukemia
SK-MEL-2 melanoma = tested on: SK-MEL-2 melanoma
NCI-H226 lung = tested on: NCI-H226 lung
OVCAR-3 ovarian = tested on: OVCAR-3 ovarian
HT29 colon = tested on: HT29 colon
SF-268 CNS = tested on: SF-268 CNS
LOX IMVI melanoma = tested on: LOX IMVI melanoma
A549 NSCLC = tested on: A549 NSCLC
HL-60(TB) leukemia = tested on: HL-60(TB) leukemia
A498 renal = tested on: A498 renal
RXF 393 renal = tested on: RXF 393 renal
OVCAR-4 ovarian = tested on: OVCAR-4 ovarian
NCI-H460 NSCLC = tested on: NCI-H460 NSCLC
SK-MEL-28 melanoma = tested on: SK-MEL-28 melanoma
KM12 colon = tested on: KM12 colon
SW-620 colon = tested on: SW-620 colon
COLO 205 colon = tested on: COLO 205 colon
IGROV1 ovarian = tested on: IGROV1 ovarian
SF-539 CNS = tested on: SF-539 CNS
UACC-62 melanoma = tested on: UACC-62 melanoma
ACHN renal = tested on: ACHN renal
MALME-3M melanoma = tested on: MALME-3M melanoma
SNB-19 CNS = tested on: SNB-19 CNS
UACC-257 melanoma = tested on: UACC-257 melanoma
SN12C renal = tested on: SN12C renal
OVCAR-5 ovarian = tested on: OVCAR-5 ovarian
HOP-92 NSCLC = tested on: HOP-92 NSCLC
DU-145 prostate = tested on: DU-145 prostate
MOLT-4 leukemia = tested on: MOLT-4 leukemia
SK-MEL-5 melanoma = tested on: SK-MEL-5 melanoma
PC-3 prostate = tested on: PC-3 prostate
T-47D breast = tested on: T-47D breast
CAKI-1 renal = tested on: CAKI-1 renal
HCC-2998 colon = tested on: HCC-2998 colon
TK-10 renal = tested on: TK-10 renal
BT-549 breast = tested on: BT-549 breast
NCI-H322M lung = tested on: NCI-H322M lung
SR leukemia = tested on: SR leukemia
786-0 renal = tested on: 786-0 renal
RPMI-8226 leukemia = tested on: RPMI-8226 leukemia
HCT-116 colon = tested on: HCT-116 colon
MDA-MB-468 breast = tested on: MDA-MB-468 breast
MDA-MB-231 breast = tested on: MDA-MB-231 breast
MDA-MB-435 melanoma = tested on: MDA-MB-435 melanoma
SF-295 CNS = tested on: SF-295 CNS
M14 melanoma = tested on: M14 melanoma

C=CC(=O)Nc1cc(Nc2ncc(C(=O)OC(C)C)c(-c3cn(C)c4ccccc34)n2)c(OC)cc1N(C)CCN(C)C
GI50 (UO-31 renal): 1020 nM | TGI (UO-31 renal): 2190 nM | GI50 (NCI/ADR-RES ovarian): 1550 nM | TGI (NCI/ADR-RES ovarian): 4340 nM | GI50 (CCRF-CEM leukemia): 1810 nM | TGI (CCRF-CEM leukemia): 3200 nM | GI50 (OVCAR-8 ovarian): 1750 nM | TGI (OVCAR-8 ovarian): 3310 nM | GI50 (HCT-15 colon): 1830 nM | TGI (HCT-15 colon): 3230 nM | GI50 (SK-OV-3 ovarian): 50 nM | TGI (SK-OV-3 ovarian): 2040 nM | GI50 (MCF7 breast): 1710 nM | TGI (MCF7 breast): 3110 nM | GI50 (U251 glioblastoma): 1750 nM | TGI (U251 glioblastoma): 3130 nM | GI50 (NCI-H522 lung): < 10 nM | TGI (NCI-H522 lung): 1400 nM | GI50 (K-562 leukemia): 1930 nM | TGI (K-562 leukemia): 3340 nM | GI50 (SK-MEL-2 melanoma): 1570 nM | TGI (SK-MEL-2 melanoma): 2910 nM | GI50 (NCI-H226 lung): 1980 nM | TGI (NCI-H226 lung): 4640 nM | GI50 (OVCAR-3 ovarian): 1200 nM | TGI (OVCAR-3 ovarian): 2680 nM | GI50 (HT29 colon): 1670 nM | TGI (HT29 colon): 3050 nM | GI50 (SF-268 CNS): 1570 nM | TGI (SF-268 CNS): 2960 nM | GI50 (LOX IMVI melanoma): 2220 nM | TGI (LOX IMVI melanoma): 3670 nM | GI50 (A549 NSCLC): 1450 nM | TGI (A549 NSCLC): 4670 nM | GI50 (HL-60(TB) leukemia): 1650 nM | TGI (HL-60(TB) leukemia): 3000 nM | GI50 (A498 renal): 1250 nM | TGI (A498 renal): 2530 nM | GI50 (RXF 393 renal): 1450 nM | TGI (RXF 393 renal): 2760 nM | GI50 (OVCAR-4 ovarian): 1800 nM | TGI (OVCAR-4 ovarian): 4210 nM | GI50 (NCI-H460 NSCLC): 1630 nM | TGI (NCI-H460 NSCLC): 2980 nM | GI50 (SK-MEL-28 melanoma): 1710 nM | TGI (SK-MEL-28 melanoma): 3080 nM | GI50 (KM12 colon): 1760 nM | TGI (KM12 colon): 3210 nM | GI50 (SW-620 colon): 1920 nM | TGI (SW-620 colon): 3340 nM | GI50 (COLO 205 colon): 1740 nM | TGI (COLO 205 colon): 3130 nM | GI50 (IGROV1 ovarian): 1010 nM | TGI (IGROV1 ovarian): 2310 nM | GI50 (SF-539 CNS): 1790 nM | TGI (SF-539 CNS): 3180 nM | GI50 (UACC-62 melanoma): 1630 nM | TGI (UACC-62 melanoma): 2990 nM | GI50 (ACHN renal): 64.7 nM | TGI (ACHN renal): 1850 nM | GI50 (MALME-3M melanoma): 1690 nM | TGI (MALME-3M melanoma): 3060 nM | GI50 (SNB-19 CNS): 3990 nM | TGI (SNB-19 CNS): 15100 nM | GI50 (UACC-257 melanoma): 1500 nM | TGI (UACC-257 melanoma): 2830 nM | GI50 (SN12C renal): 1630 nM | TGI (SN12C renal): 3380 nM | GI50 (OVCAR-5 ovarian): 4180 nM | TGI (OVCAR-5 ovarian): > 100000 nM | GI50 (HOP-92 NSCLC): 1450 nM | TGI (HOP-92 NSCLC): 2860 nM | GI50 (DU-145 prostate): 1150 nM | TGI (DU-145 prostate): 6140 nM | GI50 (MOLT-4 leukemia): 1130 nM | TGI (MOLT-4 leukemia): 2330 nM | GI50 (SK-MEL-5 melanoma): 1890 nM | TGI (SK-MEL-5 melanoma): 3290 nM | GI50 (PC-3 prostate): 2100 nM | TGI (PC-3 prostate): 4080 nM | GI50 (T-47D breast): 1280 nM | TGI (T-47D breast): 2560 nM | GI50 (CAKI-1 renal): 1040 nM | TGI (CAKI-1 renal): 2250 nM | GI50 (HCC-2998 colon): 1470 nM | TGI (HCC-2998 colon): 2800 nM | GI50 (TK-10 renal): 63.5 nM | TGI (TK-10 renal): 1710 nM | GI50 (BT-549 breast): 1910 nM | TGI (BT-549 breast): 3480 nM | GI50 (NCI-H322M lung): 14.3 nM | TGI (NCI-H322M lung): 1760 nM | GI50 (SR leukemia): 1100 nM | TGI (SR leukemia): 2290 nM | GI50 ([…]-0 renal): 1300 nM | TGI (786-0 renal): 2580 nM | GI50 (RPMI-8226 leukemia): 1190 nM | TGI (RPMI-8226 leukemia): 2420 nM | GI50 (HCT-116 colon): 1640 nM | TGI (HCT-116 colon): 3000 nM | GI50 (MDA-MB-468 breast): 26 nM | TGI (MDA-MB-468 breast): 1330 nM | GI50 (MDA-MB-231 breast): 1790 nM | TGI (MDA-MB-231 breast): 3240 nM | GI50 (MDA-MB-435 melanoma): 1830 nM | TGI (MDA-MB-435 melanoma): 3230 nM | GI50 (SF-295 CNS): 7040 nM | TGI (SF-295 CNS): 19500 nM | GI50 (M14 melanoma): 1760 nM | TGI (M14 melanoma): 3140 nM
